Data from patent US20080138326A1, “Method for cancer treatment, carcinogenesis suppression or mitigation of adverse reactions of anticancer agents” (Kaneka Corporation, priority 2006, published 2008).
Marks after values point to notes of the source that are not given here.

Assays:
[1] = tested on: Human breast cancer-derived cells (MCF-7); assay: Suppressive effect on cell activation in cancer-derived cells (intracellular ATP content); format: cell-based; settings: 24 hours; for intracellular ATP content compared with control group: 80 μg/ml, Tween 80 control = 100%, P<0.0011
Method: The reduced coenzyme Q10 obtained in Production Example 1 and the oxidized coenzyme Q10 used as a raw material in Production Example 1 were respectively dissolved in undiluted Tween 80 (MP Biomedicals) to give test samples.
Human breast cancer-derived cells (MCF-7, supplied by ATCC) were cultured in a Dulbecco's modified MEM medium (GIBCO) supplemented with 200 U of penicillin, […] streptomycin, and 10% fetal bovine serum at 37° C. in the presence of 5% CO2. After becoming confluent, the cells were sown to a 96-well microplate (IWAKI) at 2.0×10^4 cells per well. Twenty-four hours after the sowing, the medium was replaced with a Dulbecco's modified MEM medium containing 0.5% fetal bovine serum, and the above test samples were added to said medium such that the concentrations of Tween 80 were to be […], 0.025 and 0.05% (the concentrations of the reduced coenzyme Q10 or oxidized coenzyme Q10 in the medium were 20, 40 and 80 μg/ml). Tween 80 alone was added to the Dulbecco's modified MEM medium containing 0.5% fetal bovine serum such that the concentrations were to be the same, and the resulting solution was used as a control. Twenty-four hours later, the medium was removed, and the microplate was washed with PBS (GIBCO), after which intracellular ATP contents were determined using an ATP assay kit (Perkin-Elmer) and compared. The results are shown in FIG. 2, where the determined intracellular ATP amount for the control sample is given a value of 100% and the determined intracellular ATP amounts for the test samples were compared to this value.

[2] = tested on: Normal human skin fibroblasts (NHDF); assay: Promotive effect on cell activation in skin fibroblasts (intracellular ATP content); format: cell-based; settings: 48 hours; for ATP level: HCO-60 solvent; for intracellular ATP levels compared with solvent control: 0.12 and 0.98 μg/ml
Method: The reduced coenzyme Q10 obtained in Production Example 1 and the oxidized coenzyme Q10 used as a raw material in Production Example 1 were respectively dissolved in undiluted HCO-60 (polyoxyethylene hydrogenated castor oil, Nihon Surfactant Kogyo K.K.) to give test samples.
Normal human skin fibroblasts (NHDF, Kurabo Industries) were cultured in a Medium 106S basal medium (Kurabo Industries) supplemented with 2% fetal bovine serum, 10 μg/ml heparin, 1 μg/ml hydrocortisone, 10 ng/ml human recombinant […], and human recombinant basic fibroblast growth factor 3 ng/ml, at 37° C. in the presence of 5% CO2. After becoming confluent, the cells were sown to a 96-well microplate at 2.0×10^3 cells per well. The medium used at the time of cell sowing was a Medium 106S (Kurabo Industries, Ltd.) supplemented with 2% fetal bovine serum, 10 μg/ml heparin, and 1 μg/ml hydrocortisone. After cultivation for 24 hours, the test samples were replaced with the same medium added with the oxidized or reduced coenzyme Q10 such that the concentrations were to be 0.12 and 0.98 μg/ml, and the cells were further cultured for 48 hours. The same amount of HCO-60 alone was added to the medium, and the resulting solution was used as a control. The medium was then removed, and the microplate was washed with PBS (GIBCO), after which intracellular ATP contents were determined using an ATP assay kit (Perkin-Elmer) and compared.
For statistical analysis, a parametric multiple comparison (Tukey type) was performed. In comparison with the solvent-only control group, * indicates a significance level of less than 5%, and ** indicates a significance level of less than 1%. In comparison with oxidized coenzyme Q10, † indicates a significance level of less than 5%.

[3] = tested on: rats; settings: 1.2 g/kg/day for 52 consecutive weeks; cited from earlier work
[4] = tested on: aberrant crypt foci (ACF) in the rat large intestine; assay: Rat colorectal carcinogenesis model (azoxymethane-initiated aberrant crypt foci); format: in vivo; settings: four weeks; for Number of ACFs, 1 crypt, percent of control group / Number of ACFs, 2 crypts, percent of control group / Number of ACFs, 3 crypts, percent of control group / Number of ACFs, 4 crypts or more, percent of control group / Total ACF number/large intestine specimen, percent of control group / Total ACs number/large intestine specimen, percent of control group: control group = 100%; for Mean ACs number/focus / Number of ACFs formed in the large intestine, 1 crypt / Number of ACFs formed in the large intestine, 2 crypts / Number of ACFs formed in the large intestine, 3 crypts / Number of ACFs formed in the large intestine, 4 crypts or more / Total ACF number/large intestine specimen / Total ACs number/large intestine specimen: mean ± standard deviation
Method: To examine the effect of reduced coenzyme Q10 on carcinogenesis, a test was performed using a rat colorectal carcinogenesis model. This test method represents a rodent model of two-stage carcinogenesis, targeting the rat large intestine. Because carcinogenesis research using this test method is widely conducted for screening for cancer prophylactic agents and other purposes, the test results are sufficiently reliable.
Twenty-seven male F344 rats at 6 weeks of age were divided into three groups (9 animals/group) by computer-based randomized block design in a way such that no statistically significant difference would be produced in mean body weight. For initiation treatment for colorectal carcinogenesis, each rat was given azoxymethane (AOM) by subcutaneous administration at a dose of 15 mg/kg body weight once weekly for two weeks.
Starting on the day before administration of AOM, reduced coenzyme Q10 in solution in vehicle (olive oil) at a concentration of 20 or 50 mg/ml was given by gavage at doses of 0 (control group, group 1), 20, and 50 mg/kg (groups 2 and 3) on consecutive days for four weeks. The control group (group 1) received only the vehicle for administering reduced coenzyme Q10.
Four weeks after initial administration of reduced coenzyme Q10, all rats were autopsied, and the large intestine (colon and rectum, excluding the cecum) was extirpated. The large intestine with its ends ligated was fixed with injected 10% neutrally buffered formalin solution, after which the large intestine was incised and applied over filter paper flatly. Subsequently, the large intestine was post-fixed with 10% neutrally buffered formalin solution. After fixation, the large intestine was stained with 0.2% Methylene Blue solution in physiological saline for about 10 minutes, and the mucosal surface of the large intestine was examined using a stereomicroscope, whereby aberrant crypt foci (ACF), a form of precancerous lesion in colorectal cancer, were counted.
ACF was counted and classified by number of crypts present therein. Data were obtained as total ACF number per large intestine (colon and rectum) specimen, total crypt number per large intestine specimen, and mean crypt number per ACF (Table 2).
Furthermore, total ACF number per large intestine specimen was calculated according to the number of crypts in each ACF (Table 3).
For statistical analysis, Bartlett's homogeneity test was performed to compare group 1 and groups 2 and 3. […] In the case of non-homogenous dispersion, Dunnett's multiple comparison test based on a non-parametric approach (joint ranking method) was performed.

[5] = tested on: Normal human skin fibroblasts (NHDF); assay: Suppressive effect on LDL-induced cell proliferation (BrdU incorporation ELISA); format: cell-based; settings: LDL containing reduced coenzyme Q10 (2.44-78.2 μg/ml) vs LDL control sample = 100%; 48 hours
Method: Human LDL (BIODESIGN) and Medium 106S (Kurabo Industries, Ltd.), a basal medium for normal human skin fibroblasts, were mixed to prepare a LDL-containing medium. The reduced coenzyme Q10 obtained in Production Example 1 was dissolved into the LDL-containing medium at 50° C. with sonication. This was followed by membrane filtration, and the filtrate obtained was used as the test sample stock solution.
Likewise, the LDL-containing medium as is (without adding reduced coenzyme Q10) was subjected to membrane filtration and the filtrate obtained was used as the control sample stock solution. The LDL concentrations of the test sample stock solution and the control sample stock solution were same.
The concentration of reduced coenzyme Q10 in the test sample stock solution was measured by high performance liquid chromatography (column: length 25 cm, diameter 4.6 mm, YMC-PACK ODS-A (YMC), mobile phase: methanol-hexane (85:15, v/v), detection wavelength: 290 nm, flow rate: 1.0 mL/min). As a result, the weight percent of reduced coenzyme Q10 based on the total weight of coenzyme Q10 in the test sample stock solution was calculated to be 84.1% by weight, and the concentration of reduced coenzyme Q10 in the test sample stock solution was calculated to be 234.68 μg/ml. […]

COC1=C(OC)C(=O)C(C/C=C(\C)CC/C=C(\C)CC/C=C(\C)CC/C=C(\C)CC/C=C(\C)CC/C=C(\C)CC/C=C(\C)CC/C=C(\C)CC/C=C(\C)CCC=C(C)C)=C(C)C1=O [Oxidized coenzyme Q10, oxidized coenzyme Q10, reference compound]
intracellular ATP content compared with control group [1]: decreased significantly | ATP level ([2]; 0.12 μg/ml): 183.23 ± 62.70* nM | ATP level ([2]; 0.98 μg/ml): 224.84 ± 43.55* nM | intracellular ATP levels compared with solvent control [2]: significantly elevated | toxic signs [3]: no toxic signs were observed

COc1c(O)c(C)c(C/C=C(\C)CC/C=C(\C)CC/C=C(\C)CC/C=C(\C)CC/C=C(\C)CC/C=C(\C)CC/C=C(\C)CC/C=C(\C)CC/C=C(\C)CCC=C(C)C)c(O)c1OC [Reduced coenzyme Q10, reduced coenzyme Q10]
intracellular ATP content, reduced compared with oxidized coenzyme Q10 ([1]; 80 μg/ml each, P<0.05): significantly lower | intracellular ATP content compared with control group [1]: decreased significantly | ATP level ([2]; 0.12 μg/ml): 277.21 ± 46.02**† nM | ATP level ([2]; 0.98 μg/ml): 267.24 ± 20.72** nM | intracellular ATP levels compared with solvent control [2]: significantly elevated | intracellular ATP levels, reduced compared with oxidized coenzyme Q10 [2]: significantly elevated | Number of ACFs, 1 crypt, percent of control group ([4]; 20 mg/kg by gavage): (71)** % | Number of ACFs, 2 crypts, percent of control group ([4]; 20 mg/kg by gavage): (79) % | Number of ACFs, 3 crypts, percent of control group ([4]; 20 mg/kg by gavage): (100) % | Number of ACFs, 4 crypts or more, percent of control group ([4]; 20 mg/kg by gavage): (97) % | Total ACF number/large intestine specimen, percent of control group ([4]; 20 mg/kg by gavage): (80) % | Total ACs number/large intestine specimen, percent of control group ([4]; 20 mg/kg by gavage): (84) % | Mean ACs number/focus ([4]; 20 mg/kg by gavage): 1.77 ± 0.16 | Number of ACFs formed in the large intestine, 1 crypt ([4]; 20 mg/kg by gavage): 47 ± 12 | Number of ACFs formed in the large intestine, 2 crypts ([4]; 20 mg/kg by gavage): 39 ± 9 | Number of ACFs formed in the large intestine, 3 crypts ([4]; 20 mg/kg by gavage): 18 ± 12 | Number of ACFs formed in the large intestine, 4 crypts or more ([4]; 20 mg/kg by gavage): 7 ± 6 | Total ACF number/large intestine specimen ([4]; 20 mg/kg by gavage): 113 ± 32 | Total ACs number/large intestine specimen ([4]; 20 mg/kg by gavage): 214 ± 81 | Number of ACFs, 1 crypt, percent of control group ([4]; 50 mg/kg by gavage): (61)*** % | Number of ACFs, 2 crypts, percent of control group ([4]; 50 mg/kg by gavage): (70)** % | Number of ACFs, 3 crypts, percent of control group ([4]; 50 mg/kg by gavage): (80) % | Number of ACFs, 4 crypts or more, percent of control group ([4]; 50 mg/kg by gavage): (78) % | Total ACF number/large intestine specimen, percent of control group ([4]; 50 mg/kg by gavage): (74)* % | Total ACs number/large intestine specimen, percent of control group ([4]; 50 mg/kg by gavage): (71)* % | Mean ACs number/focus ([4]; 50 mg/kg by gavage): 1.76 ± 0.33 | Number of ACFs formed in the large intestine, 1 crypt ([4]; 50 mg/kg by gavage): 40 ± 10 | Number of ACFs formed in the large intestine, 2 crypts ([4]; 50 mg/kg by gavage): 35 ± 11 | Number of ACFs formed in the large intestine, 3 crypts ([4]; 50 mg/kg by gavage): 15 ± 7 | Number of ACFs formed in the large intestine, 4 crypts or more ([4]; 50 mg/kg by gavage): 6 ± 4 | Total ACF number/large intestine specimen ([4]; 50 mg/kg by gavage): 104 ± 26 | Total ACs number/large intestine specimen ([4]; 50 mg/kg by gavage): 181 ± 54 | gross condition, mortality, food consumption, and body weight during the treatment period ([4]; 20 and 50 mg/kg by gavage, male F344 rats): no changes associated with administration of the test substance were observed | total ACF number and total crypt number per large intestine specimen compared with the control group ([4]; 20 and 50 mg/kg by gavage, statistically significant in the 50 mg/kg group): decreased | total ACF number for 1-crypt ACF or 2-crypt ACF ([4]; 20 and 50 mg/kg by gavage, vs control group): decreased significantly | elevation of cell division activity (BrdU incorporated in the nucleus) induced by LDL [5]: suppressed
